In data set [1] the test system is human colon carcinoma LOVO. The format is in vivo, Athymic nu/nu female mice. The settings on record: for % T/C day 7 / % T/C day 14 / % T/C day 21 / % T/C day 28: LOVO xenograft, SPA-110 intravenously, Vincristine intraperitoneally, p≦0.05; for % T/C day 7: day 7 post staging; for % T/C day 14: day 14 post staging; for % T/C day 21: day 21 post staging; for % T/C day 28: day 28 post staging. How it is done: The compound SPA-110 was evaluated in vivo using standard pharmacological test procedures which measure its ability to inhibit the growth of human tumor xenografts. The human colon carcinoma LOVO (American Type Culture Collection, Rockville, Md. #CCL-229) was grown in tissue culture in RPMI supplemented with 10% FBS. Athymic nu/nu female mice (Charles River, Wilmington, Mass.) were injected sub-cutaneously in the flank area with 7.0×10^6 LOVO cells. When tumors attained a mass of between 80 and 120 mg, the mice were randomized into treatment groups (day zero). Animals were treated intravenously once a day on days 1, 5, and 9 post staging (day zero) with 1 mg/kg/dose of SPA-110 prepared in 2.5% ethanol in saline or with saline as the vehicle control. Some animals were treated intraperitonealy once a day on days 1, 5 and 9 post staging with 1 mg/kg/dose Vincristine as a positive control. Tumor mass was determined every 7 days [(length×width^2)/2] for 28 days post staging. RTG or relative tumor growth (Mean tumor mass on days 7, 14, 21 and 28 divided by the mean tumor mass on day zero) was determined for each treatment group. % T/C was calculated as RTC (treated group) % RTC (vehicle control group)×100. Statistical analysis (Student-t-test) of log relative tumor growth was used to compare treated verses control group in each experiment. A p-value (p≦0.05), which indicates a statistically significant reduction in relative tumor growth, was obtained in each case. 5 of 5 animals treated at day 28 with SPA-110 survived. 9 of 10 animals treated at day 28 with vincristine survived.

Data set [2] relates to MCF-7 mp53− cells. The experiment in a line: Assay for antimitotic activity, ELISA with mitosis-specific antibody TG-3. The settings on record: 20 hours incubation, FIG. 6, naturally occurring compound = hemiasterlin. The format is cell-based, human. How it is done: Antimitotic activity is detected by enzyme-linked immunosorbent assay using a mitosis-specific antibody, TG-3 (from Albert Einstein College of Yeshiva University, Bronx, N.Y.; and see: PCT application published Jul. 4, 1996 under WO96/20218).
MCF-7 mp 53^− cells (expressing a dominant-negative p53 mutation as described in S. Fan, et al. […] Cancer Research 55:1649-1654) were cultured as monolayers in DMEM supplemented with 10% fetal bovine serum, 2 mM L-glutamine, 50 units/ml penicillin, 50 μg/ml streptomycin, 1 mM sodium pyruvate, MEM non-essential amino acids, 1 μg/ml bovine insulin, 1 μg/ml hydrocortisone, 1 ng/ml human epidermal growth factor, and 1 ng/ml β-estradiol at 37° C. in humidified 5% CO2. The cells were seeded at 10,000 cells per well of 96-well polystyrene tissue culture plates (Falcon) in a volume of 200 μl cell culture medium. The cells were allowed to grow for 24 hours and compounds were added at about 1 μg/ml or 10 μg/ml (from 1000-fold stocks in dimethylsulfoxide) and the cells were incubated for 20 hours. Nocodazole (Sigma) served as a positive control. […] 100 μl of 120 mM Na2HPO41 100 mM citric acid, pH 4.0 containing 0.5 mg/ml 2,2′-azino-bis(3-ethylbenzthiazoline-6-sulfonic acid) and 0.01% hydrogen peroxide was added for 1 hour at room temperature and the plates were read at 405 nm using a BioTek plate reader.

Data set [3] concerns p53+ and p53− variants of human breast cancer MCF-7 cells and A549 tumor cells. Description: Assay for cytotoxicity (J. Immunol. Methods 65:55-63), SPA-110 compared to hemiasterlin. The format is cell-based. The settings on record: MCF-7 p53+ and p53− and A549 cells; FIGS. 5A and 5B; naturally occurring compound = hemiasterlin. How it is done:
Cytotoxicity of SPA-110 compared to hemiasterlin as against p53+ and p53− variants of human breast cancer MCF-7 cells and A549 tumor cells was determined according to the methods described in J. Immunol. Methods 65:55-63 (1983).

Counter-ions that a name gives are not always drawn. Like-named read-outs stand apart in the source and are kept apart here.

`CC[C@]1(O)C[C@H]2CN(CCc3c([nH]c4ccccc34)[C@@](C(=O)OC)(c3cc4c(cc3OC)N(C=O)[C@H]3[C@@](O)(C(=O)OC)[C@H](OC(C)=O)[C@]5(CC)C=CCN6CC[C@]43[C@@H]65)C2)C1` [Vincristine, reference compound]: in data set [1] (1 mg/kg/dose on days 1, 5, 9), the “% T/C day 7” value is listed as 34%, the “% T/C day 14” value is given as 37%, the “% T/C day 21” value worked out at 44% and the “% T/C day 28” value was determined as 47%. Moreover, the “Animals surviving at day 28” value in data set [1] (female, athymic nu/nu, mouse, in vivo, 1 mg/kg, 28 days) is reported as 9 of 10.

On to `CN[C@H](C(=O)NC(C(=O)N(C)C(/C=C(\C)C(=O)O)C(C)C)C(C)(C)C)C(C)(C)c1ccccc1` (stereo in doubt) [SPA-110, SPA 110-trifluoroacetate salt], for which the “Antimitotic activity compared to hemiasterlin” value in data set [2] was “considerably greater antimitotic activity than the naturally occurring compound”. The “Animals surviving at day 28” value in data set [1] (LOVO xenograft mice, day 28, 1 mg/kg/dose on days 1, 5, 9) is recorded as 5 of 5. Moreover, in data set [1] (1 mg/kg/dose on days 1, 5, 9), the “% T/C day 7” value amounted to 16%, the “% T/C day 14” value was 18%, the “% T/C day 21” value came to 30% and the “% T/C day 28” value was 47%. Also, the “Cytotoxicity compared to hemiasterlin” value in data set [3] is on record as “more cytotoxic in some instances than the naturally occurring compound”.

Source of the values: patent US7579323B1, “Hemiasterlin analogs” (The University of British Columbia, priority 1997, dated 2009).
